The source of these data is patent publication US20020155479A1, “Expression cloning method” (Whitehead Institute for Biomedical Research, priority 1999, published 2002).

For assay [1], the system named is GLUT4 at the plasma membrane of 3T3-L1 cells. Kind of assay: FACS-based assay of the proportion of GLUT4 reporter at the cell surface, 3T3-L1 cells. Details: species or system murine. Here is the method:
(§1) Confluent cells were reseeded on the indicated day of differentiation to six well plates (Coming, Costar #3506) one day before use in experiments, and were starved in DMEM without fetal bovine serum for at least 3 hours before insulin stimulation. Insulin was generally used at 160 nM; occasionally it was used at 80 nM or 200 nM and no difference was noted between these concentrations in either 3T3-L1 or CHO cells. Insulin was added directly to the wells from a 100×stock. After treatment in the presence or absence of insulin for the times indicated in each figure, cells were quickly transferred to […] and washed with cold phosphate buffered saline (PBS) containing 0.9 mM Ca^++ and 0.5 mM Mg^++ (PBS++). All subsequent steps were carried out at 4° C., and staining of externalized myc epitope was done on adherent cells. Cells were incubated with a 1:200 dilution of anti-myc (9E10) ascites or using 25 μg/ml purified 9E10 in PBS++, 2% bovine serum albumin (BSA), 4% donkey serum for 1.5 hours. Cells were then washed twice in PBS++, for 5 minutes each time. They were then incubated 45 minutes in 12.5 to 25 μg/ml R-phycoerythrin conjugated donkey F(ab′)2 anti-mouse IgG secondary antibody, diluted in PBS++, 2% BSA, 4% donkey serum. Cells were rinsed twice in PBS++, then washed three times in PBS++ for 10 minutes each time, and were resuspended by gentle scraping in PBS++, 2% BSA or PBS++, 5% fetal bovine serum for flow cytometry. For experiments involving insulin removal, cells were chilled as above after insulin stimulation, then washed twice with 5 mM sodium acetate, 150 mM NaCl, pH 4.0 (Kao, A. W., et al., 1998, J Biol Chem 273:25450-7; Yang., J., et al., 1992, J Biol Chem 267:10393-9). Cells were rewarmed in 37° C. DMEM for the times indicated, restimulated or not with insulin, and then returned to 4° C. and chilled with cold PBS++ before staining as above.
(§2) Flow cytometry was done on FACScan or FACSCalibur cytometers (Becton-Dickinson). Appropriate compensation between the FL1 and FL2 channels was set using uninfected (GFP-negative) cells or cells stained with PE only (e.g. using a PE-conjugated anti-transferrin receptor antibody; Pharmingen). […] For each sample, data from ≧10,000 cells were collected. Median fluorescence intensities were used for quantification, since this measure of central tendency is least sensitive to outliers. For each sample, the PE and GFP fluorescence specifically attributable to the presence of the GLUT4 reporter were determined by subtracting background fluorescences, measured using control unstained cells and cells not expressing the reporter, respectively. These control cells were treated with the same conditions (e.g., type of serum and media, amino acid concentrations) used for the experimental cells. The ratio of fluorescence intensities plotted on the vertical axes of many figures is a relative, not absolute, measure of the proportion of GLUT4 at the cell surface. The scales are numbered arbitrarily and are not intended to permit comparison in absolute terms of data obtained in different experiments. In some of the kinetic studies (FIG. 26), the data were subjected to a simple smoothing operation. This consisted of calculating (0.25ra1—0.5rc+0.25rc+1), where r is the ratio of specific fluorescences for timepoint t. This calculated value was used for timepoints t=2 to ten−1, where n is the total number of timepoints. For the last time point t=n, (0.33rc1+0.67r1) was calculated. Basal values of r (r1) were unchanged.
To assay changes in the proportion of GLUT4 present at the plasma membrane, a cDNA encoding a GLUT4 reporter protein was constructed. This protein contains seven c-myc epitope tags in the first exofacial loop of GLUT4, and GFP fused in-frame at the carboxy terminus. […] An anti-myc monoclonal antibody, followed by a phencoerythrin (PE)-conjugated secondary antibody, was used to detect reporter protein present at the surface of living cells. […]

For assay [2], the system named is GLUT4 at the plasma membrane of CHO cells. Kind of assay: FACS-based assay of the proportion of GLUT4 reporter at the cell surface, CHO cells. Details: species or system Chinese Hamster. Here is the method: as §1, §2
To measure GLUT4 trafficking at the surface of CHO cells, CHO cells expressing the murine ecotropic retroviral receptor were infected with a retrovirus carrying the GLUT4 reporter, and FACS was utilized to isolate cells falling within a narrow range of GFP fluorescence intensities. Upon insulin stimulation of these cells, externalization of the GLUT4 reporter was again noted, as detected by flow cytometry. […]

Assay [3] relates to GLUT4 at the cell surface of NIH 3T3 cells. Kind of assay: FACS-based assay of the proportion of GLUT4 reporter at the cell surface, NIH 3T3 cells. The settings on record: NIH 3T3 cells expressing the GLUT4 reporter. As for the experimental part:
Confluent cells were reseeded on the indicated day of differentiation to six well plates (Coming, Costar #3506) one day before use in experiments, and were starved in DMEM without fetal bovine serum for at least 3 hours before insulin stimulation. Insulin was generally used at 160 nM; occasionally it was used at 80 nM or 200 nM and no difference was noted between these concentrations in either 3T3-L1 or CHO cells. Insulin was added directly to the wells from a 100×stock. […]
Flow cytometry was done on FACScan or FACSCalibur cytometers (Becton-Dickinson). […] Median fluorescence intensities were used for quantification, since this measure of central tendency is least sensitive to outliers. For each sample, the PE and GFP fluorescence specifically attributable to the presence of the GLUT4 reporter were determined by subtracting background fluorescences, measured using control unstained cells and cells not expressing the reporter, respectively. […] The ratio of fluorescence intensities plotted on the vertical axes of many figures is a relative, not absolute, measure of the proportion of GLUT4 at the cell surface. […] This consisted of calculating (0.25ra1—0.5rc+0.25rc+1), where r is the ratio of specific fluorescences for timepoint t. This calculated value was used for timepoints t=2 to ten−1, where n is the total number of timepoints. For the last time point t=n, (0.33rc1+0.67r1) was calculated. […]

For assay [4], the system named is GLUT4 in the plasma membrane fraction of 3T3-L1 cells. Kind of assay: Subcellular fractionation and immunoblotting of GLUT4 in plasma membrane fraction, 3T3-L1 cells. In kind it is cell-based, murine. An excerpt: Four 10 cm plates of 3T3-L1 adipocytes were used per condition to isolate low density microsomal and plasma membrane fractions for FIG. 17B. Eight and ten plates per condition were used to isolate low density microsomes for analysis by sucrose density gradient centrifugation (FIG. 17C) and in vesicle immunopurification experiments (FIG. 17D), respectively. Five plates of adipocytes and ten plates of preadipocytes were used per condition in experiments presented in FIGS. 19B and 20B, respectively. For experiments presented in FIGS. 17B and 17D cells were serum starved overnight, treated with the presence or absence of insulin (160 nM, 10 min.), then transferred to 4° C. and washed with cold PBS++. For the vesicle immunopurification (FIG. 17D) cells were starved overnight, then transferred to 4° C. and washed with cold PBS++ without insulin stimulation. For kinetic studies (FIGS. 19B), 480 nM insulin was used (added from a prewarmed 3×stock) in order to maximally and simultaneously stimulate all of the cells on each 10 cm dish. Cell were transferred to 4° C. and washed with cold PBS++ at the indicated times. In all cases, cells were next washed once with cold 250 mM sucrose, 10 mM Tris pH 7.4, 0.5 mM EDTA (Buffer A). Cells were resuspended by scraping in cold Buffer A with Complete protease inhibitors (Roche), then homogenized using 16 strokes (4 plates) or 25 strokes (8 plates) in a Dounce-type teflon tissue grinder (Kontes #22, VWR). All subsequent steps were performed at 4° C. […]
The supernatant from the initial centrifugation was recentrifuged at 19,000 rpm in an SS-34 rotor (43,000×g) for 30 minutes. […] Equal volumes of each fraction were analyzed by SDS-PAGE and immunoblotting, and the total protein content in each fraction was determined using the micro-BCA kit (Pierce). In experiments where LDM and PM fractions were analyzed directly (without sedimentation of the LDM), total protein content was first determined and then equal amounts of protein were analyzed by SDS-PAGE and immunoblotting.

Assay [5] has as its system GLUT4 reporter in AML12 hepatocyte cell line. Briefly: GLUT4 reporter translocation in AML12 hepatocyte cell line. In kind it is cell-based. The settings on record: AML12 cells; data not shown.
Assay [6] deals with GLUT4 at the cell surface of adipocytes. The settings on record: <10% in the absence of insulin; cited from earlier work.
The mark [7] stands for this setting: 3T3-L1 preadipocytes and adipocytes.
Setting [8] is: all days of 3T3-L1 differentiation, 80 nM insulin.

On to `CO[C@H]1C[C@@H]2CC[C@@H](C)[C@@](O)(O2)C(=O)C(=O)N2CCCC[C@H]2C(=O)O[C@H]([C@H](C)C[C@@H]2CC[C@@H](O)[C@H](OC)C2)CC(=O)[C@H](C)/C=C(\C)[C@@H](O)[C@@H](OC)C(=O)[C@H](C)C[C@H](C)/C=C/C=C/C=C/1C` [rapamycin, reference compound], for which the “decrease in amount of GLUT4 reporter per cell (GFP fluorescence)” value in assay [1] (3T3-L1 adipocytes, after rapamycin treatment, data not shown) was at most 10%. Also, the “change in amount of GLUT4 reporter protein (GFP fluorescence)” value in assay [2] (CHO cells, after rapamycin treatment, data not shown) is listed as at most 10%.
Regarding insulin, the “subsequent decrease to steady-state, of peak response” value in assay [1] (3T3-L1 adipocytes, FIG. 19A) is listed as around 20%. Besides, the “peak response over basal” value in assay [1] (3T3-L1 adipocytes, average of Day 8 and 10, FIG. 19A) is 5.4 fold. In assay [1] (setting [7]), the “time at which steady-state level of cell surface GLUT4 is reached” value is on record as “about 15 minute” and the “time of peak plasma membrane GLUT4 after insulin addition” value is “about 5 minute”. Besides, in assay [1] (3T3-L1 preadipocytes and adipocytes, peak after insulin addition), the “increase in plasma membrane GLUT4” value was “about 5 fold”. For the same molecule, the “increase in cell-surface GLUT4” value in assay [1] (3T3-L1 preadipocytes, 5 minutes after insulin addition) is “fourfold”. For the same molecule, in assay [1] (setting [8]), the “fall of the fraction of GLUT4 on the plasma membrane after the peak” value is 20% to 40, the “time of greatest proportion of GLUT4 on the plasma membrane after insulin addition” value was “four to five” and the “time to steady-state after insulin addition” value was in the range of 15 to 20 min. Also, the “increase in the fraction of GLUT4 present at the plasma membrane” value in assay [1] (confluent 3T3-L1 preadipocytes cultured in 10% calf serum or 10% fetal bovine serum, 5 minutes) is recorded as “four-fold”. For the same molecule, in assay [2] (CHO cells), the “time at which steady-state level of cell surface GLUT4 is reached” value is “about 15 minute” and the “time of peak plasma membrane GLUT4 after insulin addition” value was “about 5 minute”. Also, in assay [2] (CHO cells cultured in DMEM), the “peak fraction of GLUT4 at the cell surface relative to unstimulated cells” value was 5.5 fold, the “time of peak GLUT4 externalization after insulin addition” value is listed as “four to five” and the “time to steady-state after insulin addition” value is “twenty”. For the same molecule, the “part of the increase eliminated in the subsequent decrease” value in assay [2] (CHO cells cultured in DMEM, several experiments) is 50% to 60. Further, the “overshoot of the final, steady-state proportion of GLUT4 at the cell surface” value in assay [2] (CHO cells cultured in F12 medium) is “no overshoot”. For the same molecule, the “increase in plasma membrane GLUT4” value in assay [2] (CHO cells, peak after insulin addition) is “about 5 fold”. The “shift of the population upward along the PE (myc) axis” value in assay [2] (confluent CHO cells expressing the GLUT4 reporter, FIG. 17F) was around 5 fold. In addition, the “increase in the proportion of GLUT4 at the cell surface” value in assay [3] is reported as “twofold”. Moreover, in assay [4] (3T3-L1 adipocytes, native GLUT4 and reporter protein, insulin 160 nM, 10 min, densitometry of several experiments), the “increases in the plasma membrane fraction (insulin/basal)” value is recorded as 5- to 10 fold. The “time of peak response of GLUT4 reporter in the PM fraction after insulin addition” value in assay [4] (3T3-L1 preadipocytes expressing the GLUT4 reporter) turned out to be 8 min. For the same molecule, the “time of peak GLUT4 in the PM fraction after insulin addition” value in assay [4] (endogenous GLUT4, uninfected 3T3-L1 adipocytes, 480 nM insulin) is 7 min. Besides, in assay [5], the “insulin-stimulated translocation of the GLUT4 reporter” value is “minimal translocation” and the “overshoot of the steady-state response” value is “no overshoot”. Besides, the “proportion of GLUT4 at the cell surface in the presence of insulin” value in assay [6] was 35-50%.
